{
  "source": "ChEMBL document CHEMBL2074479",
  "about": "“Organic anion transporting polypeptides expressed in liver and brain mediate uptake of microcystin” (Toxicol Appl Pharmacol, 2005)",
  "key": {"[1]": {"target": "T1, Solute carrier organic anion transporter family member 1A2 (OATP1A2) (Homo sapiens, UniProt P46721)", "T1 sequence (P46721 whole entry)": "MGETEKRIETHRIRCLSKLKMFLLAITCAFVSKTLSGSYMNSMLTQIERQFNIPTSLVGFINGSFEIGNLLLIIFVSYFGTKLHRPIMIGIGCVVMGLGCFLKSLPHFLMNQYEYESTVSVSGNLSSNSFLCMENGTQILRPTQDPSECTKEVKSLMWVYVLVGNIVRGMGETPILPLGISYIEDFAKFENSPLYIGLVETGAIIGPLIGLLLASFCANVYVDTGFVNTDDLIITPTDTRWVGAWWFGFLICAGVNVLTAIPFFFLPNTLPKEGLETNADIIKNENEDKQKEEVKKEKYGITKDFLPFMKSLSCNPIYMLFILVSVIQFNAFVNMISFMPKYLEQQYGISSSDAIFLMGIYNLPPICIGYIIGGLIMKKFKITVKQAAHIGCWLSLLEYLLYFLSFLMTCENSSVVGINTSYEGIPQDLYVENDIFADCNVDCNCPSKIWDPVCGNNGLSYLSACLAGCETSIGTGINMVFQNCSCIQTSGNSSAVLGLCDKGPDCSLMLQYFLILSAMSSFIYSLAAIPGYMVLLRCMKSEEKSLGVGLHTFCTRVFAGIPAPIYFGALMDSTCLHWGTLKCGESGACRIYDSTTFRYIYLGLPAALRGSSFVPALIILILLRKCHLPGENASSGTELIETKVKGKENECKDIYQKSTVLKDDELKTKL", "assay": "(§1) TP_TRANSPORTER: uptake in Xenopus laevis oocytes", "format": "functional, cell-based, Oocyte"}, "[2]": {"target": "T2, Solute carrier organic anion transporter family member 1B1 (OATP1B1) (Homo sapiens, UniProt Q9Y6L6)", "T2 sequence (Q9Y6L6 whole entry)": "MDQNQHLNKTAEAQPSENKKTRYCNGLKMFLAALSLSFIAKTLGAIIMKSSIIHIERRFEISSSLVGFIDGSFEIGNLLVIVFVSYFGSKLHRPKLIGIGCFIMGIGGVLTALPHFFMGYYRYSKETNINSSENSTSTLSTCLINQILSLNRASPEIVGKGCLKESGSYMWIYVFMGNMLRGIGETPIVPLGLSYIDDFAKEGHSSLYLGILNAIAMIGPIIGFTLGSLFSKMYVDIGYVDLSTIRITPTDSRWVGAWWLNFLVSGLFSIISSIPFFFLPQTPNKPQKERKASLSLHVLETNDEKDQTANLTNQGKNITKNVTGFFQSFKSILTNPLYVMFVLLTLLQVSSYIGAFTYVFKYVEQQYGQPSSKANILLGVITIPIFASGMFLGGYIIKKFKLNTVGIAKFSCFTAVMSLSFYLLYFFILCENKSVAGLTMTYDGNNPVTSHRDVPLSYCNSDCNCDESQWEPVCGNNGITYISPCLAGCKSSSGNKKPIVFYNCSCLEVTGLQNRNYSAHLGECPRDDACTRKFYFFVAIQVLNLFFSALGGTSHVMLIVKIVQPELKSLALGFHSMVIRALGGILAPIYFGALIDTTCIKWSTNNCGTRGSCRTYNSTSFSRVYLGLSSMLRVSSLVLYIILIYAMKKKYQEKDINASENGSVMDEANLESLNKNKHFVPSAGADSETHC", "assay": "as §1", "format": "functional, cell-based, Oocyte"}, "[3]": {"target": "T3, Solute carrier organic anion transporter family member 1B3 (OATP1B3) (Homo sapiens, UniProt Q9NPD5)", "T3 sequence (Q9NPD5 whole entry)": "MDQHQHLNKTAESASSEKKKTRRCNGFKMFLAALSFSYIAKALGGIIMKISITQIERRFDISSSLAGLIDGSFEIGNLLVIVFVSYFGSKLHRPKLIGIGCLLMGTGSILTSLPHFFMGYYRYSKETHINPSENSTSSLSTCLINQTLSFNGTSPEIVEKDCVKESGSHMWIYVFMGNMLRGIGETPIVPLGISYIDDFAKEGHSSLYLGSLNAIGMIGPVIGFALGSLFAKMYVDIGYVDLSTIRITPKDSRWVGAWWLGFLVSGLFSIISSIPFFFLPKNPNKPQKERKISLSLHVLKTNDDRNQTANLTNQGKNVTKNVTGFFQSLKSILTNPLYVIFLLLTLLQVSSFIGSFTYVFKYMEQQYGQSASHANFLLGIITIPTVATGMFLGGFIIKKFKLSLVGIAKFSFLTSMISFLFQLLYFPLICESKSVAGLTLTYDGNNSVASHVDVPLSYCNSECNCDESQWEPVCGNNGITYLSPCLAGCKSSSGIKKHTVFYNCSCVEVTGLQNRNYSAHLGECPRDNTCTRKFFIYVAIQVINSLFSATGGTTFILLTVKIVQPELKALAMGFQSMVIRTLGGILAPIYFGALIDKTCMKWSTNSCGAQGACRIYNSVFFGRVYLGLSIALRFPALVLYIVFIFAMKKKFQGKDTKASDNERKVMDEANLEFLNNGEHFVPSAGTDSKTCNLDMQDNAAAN", "assay": "as §1", "format": "functional, cell-based, Oocyte"}, "[4]": {"target": "T4, Solute carrier organic anion transporter family member 1A1 (Rattus norvegicus, UniProt P46720)", "T4 sequence (P46720 whole entry)": "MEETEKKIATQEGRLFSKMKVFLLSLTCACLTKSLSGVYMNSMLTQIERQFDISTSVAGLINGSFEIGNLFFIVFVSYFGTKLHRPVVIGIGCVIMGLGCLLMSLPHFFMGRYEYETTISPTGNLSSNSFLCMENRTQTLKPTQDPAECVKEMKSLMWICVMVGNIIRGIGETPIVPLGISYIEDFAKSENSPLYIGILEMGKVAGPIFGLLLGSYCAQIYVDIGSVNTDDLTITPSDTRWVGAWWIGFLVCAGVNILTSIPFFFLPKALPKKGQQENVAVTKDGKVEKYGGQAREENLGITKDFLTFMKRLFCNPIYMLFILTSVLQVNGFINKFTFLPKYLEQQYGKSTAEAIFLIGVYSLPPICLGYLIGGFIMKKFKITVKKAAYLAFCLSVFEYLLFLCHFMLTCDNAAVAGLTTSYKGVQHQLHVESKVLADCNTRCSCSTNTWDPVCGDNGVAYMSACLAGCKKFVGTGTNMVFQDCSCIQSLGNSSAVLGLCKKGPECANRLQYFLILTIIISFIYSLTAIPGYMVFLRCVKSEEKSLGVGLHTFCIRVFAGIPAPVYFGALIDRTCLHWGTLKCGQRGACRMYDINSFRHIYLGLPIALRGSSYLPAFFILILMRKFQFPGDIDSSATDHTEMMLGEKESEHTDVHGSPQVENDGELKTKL", "assay": "as §1", "format": "functional, cell-based", "conditions": "oocyte"}, "[5]": {"target": "T5, Solute carrier organic anion transporter family member 1A4 (Rattus norvegicus, UniProt O35913)", "T5 sequence (O35913 whole entry)": "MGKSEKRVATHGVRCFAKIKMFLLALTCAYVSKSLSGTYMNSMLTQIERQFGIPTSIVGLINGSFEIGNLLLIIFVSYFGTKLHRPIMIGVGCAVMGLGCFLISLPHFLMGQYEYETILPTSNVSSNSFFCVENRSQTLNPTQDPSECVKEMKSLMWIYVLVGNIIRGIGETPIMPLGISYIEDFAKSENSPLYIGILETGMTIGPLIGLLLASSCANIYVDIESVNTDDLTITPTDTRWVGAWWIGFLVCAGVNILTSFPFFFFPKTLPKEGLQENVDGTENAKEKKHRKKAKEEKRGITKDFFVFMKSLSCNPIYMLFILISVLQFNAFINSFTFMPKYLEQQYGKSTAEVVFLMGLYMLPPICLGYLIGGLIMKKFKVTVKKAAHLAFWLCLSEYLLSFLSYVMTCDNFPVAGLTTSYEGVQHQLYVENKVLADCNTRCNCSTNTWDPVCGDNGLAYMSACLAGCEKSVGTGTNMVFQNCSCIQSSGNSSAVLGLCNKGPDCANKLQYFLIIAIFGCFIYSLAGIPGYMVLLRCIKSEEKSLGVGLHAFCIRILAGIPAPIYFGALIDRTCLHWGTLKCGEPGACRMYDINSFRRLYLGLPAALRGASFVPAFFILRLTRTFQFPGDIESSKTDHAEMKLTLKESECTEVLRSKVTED", "assay": "as §1", "format": "functional, cell-based", "conditions": "oocyte"}, "[6]": {"target": "T6, Solute carrier organic anion transporter family member 1B2 (Rattus norvegicus, UniProt Q9QZX8)", "T6 sequence (Q9QZX8 whole entry)": "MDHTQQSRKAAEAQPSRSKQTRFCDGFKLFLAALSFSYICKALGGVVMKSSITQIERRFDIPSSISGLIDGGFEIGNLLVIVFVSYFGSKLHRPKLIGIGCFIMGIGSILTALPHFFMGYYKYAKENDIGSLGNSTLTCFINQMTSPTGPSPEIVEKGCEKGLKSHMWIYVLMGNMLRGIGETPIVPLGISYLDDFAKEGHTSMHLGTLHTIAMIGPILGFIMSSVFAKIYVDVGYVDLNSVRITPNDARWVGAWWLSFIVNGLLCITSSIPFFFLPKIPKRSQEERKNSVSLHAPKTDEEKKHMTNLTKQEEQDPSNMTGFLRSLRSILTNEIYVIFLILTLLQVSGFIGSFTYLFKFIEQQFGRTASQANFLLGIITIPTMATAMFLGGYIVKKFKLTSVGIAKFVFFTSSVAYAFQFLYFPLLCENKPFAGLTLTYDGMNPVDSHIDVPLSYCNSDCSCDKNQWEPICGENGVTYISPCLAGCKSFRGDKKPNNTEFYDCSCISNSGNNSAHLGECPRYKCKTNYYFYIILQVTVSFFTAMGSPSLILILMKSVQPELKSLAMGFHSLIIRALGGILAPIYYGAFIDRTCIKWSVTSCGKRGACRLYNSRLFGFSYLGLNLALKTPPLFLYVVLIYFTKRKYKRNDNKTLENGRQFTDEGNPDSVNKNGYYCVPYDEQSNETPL", "assay": "as §1", "format": "functional, cell-based", "conditions": "oocyte"}, "[7]": {"target": "T7, Solute carrier organic anion transporter family member 2B1 (Homo sapiens, UniProt O94956)", "T7 sequence (O94956 whole entry)": "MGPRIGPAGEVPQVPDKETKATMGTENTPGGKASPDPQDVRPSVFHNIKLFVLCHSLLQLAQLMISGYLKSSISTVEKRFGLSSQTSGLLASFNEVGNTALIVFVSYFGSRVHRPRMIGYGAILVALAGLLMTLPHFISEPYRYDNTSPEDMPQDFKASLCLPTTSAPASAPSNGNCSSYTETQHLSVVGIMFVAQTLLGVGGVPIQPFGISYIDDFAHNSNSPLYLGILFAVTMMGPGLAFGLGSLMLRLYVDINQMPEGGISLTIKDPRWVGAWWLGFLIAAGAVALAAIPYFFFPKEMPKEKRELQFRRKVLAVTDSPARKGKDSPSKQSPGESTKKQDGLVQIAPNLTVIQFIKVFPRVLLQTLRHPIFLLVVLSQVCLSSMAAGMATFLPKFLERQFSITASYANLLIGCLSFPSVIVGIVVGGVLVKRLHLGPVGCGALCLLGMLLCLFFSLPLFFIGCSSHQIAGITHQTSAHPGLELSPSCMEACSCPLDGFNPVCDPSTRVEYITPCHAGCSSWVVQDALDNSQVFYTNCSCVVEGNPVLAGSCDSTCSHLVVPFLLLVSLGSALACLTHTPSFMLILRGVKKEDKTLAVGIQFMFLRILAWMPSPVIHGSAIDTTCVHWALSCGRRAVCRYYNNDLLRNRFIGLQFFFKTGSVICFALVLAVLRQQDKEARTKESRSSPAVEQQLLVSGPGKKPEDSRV", "assay": "as §1", "format": "functional, cell-based", "conditions": "oocyte"}},
  "note": "Numbered stars: 1 amine (or outer) side, 2 acyl side, 3 side chain; on linkers, the order of the positions; unused ones are H or OH. Bridge positions count the residues as written; N and C are the ends. Square brackets hold non-standard residues; d marks the D form. Peptide text beside a SMILES is read from it. Adda = CO[C@@H](Cc1ccccc1)[C@@H](C)/C=C(C)/C=C/[C@H](N[*:1])[C@H](C)C(=O)[*:2]; dAsp(3S-Me) = C[C@H](C(=O)[*:3])[C@@H](N[*:1])C(=O)[*:2]; d(γGlu) = O=C(O)[C@@H](CCC(=O)[*:2])N[*:1]; NMeDha = C=C(NC)C(=O)O",
  "data": [
    {"smiles": "C=C1C(=O)N[C@H](C)C(=O)N[C@@H](CC(C)C)C(=O)N[C@@H](C(=O)O)[C@H](C)C(=O)N[C@@H](CCCNC(=N)N)C(=O)N[C@@H](/C=C/C(C)=C/[C@H](C)[C@H](Cc2ccccc2)OC)[C@H](C)C(=O)N[C@@H](C(=O)O)CCC(=O)N1C", "note": "[MICROCYSTIN-LR] (R[Adda][d(γGlu)][NMeDha][dA]L[dAsp(3S-Me)]-OH; lactam N-7)", "values": [
      {"measurement": "Km", "setting": "[1]", "value": 20, "unit": "µM"},
      {"measurement": "Km", "setting": "[2]", "value": 12.4, "unit": "µM"},
      {"measurement": "Km", "setting": "[3]", "value": 12.4, "unit": "µM"},
      {"measurement": "Activity", "setting": "[4]", "value": "is not a substrate [(-)]"},
      {"measurement": "Activity", "setting": "[5]", "value": "is not a substrate [(-)]"},
      {"measurement": "Activity", "setting": "[6]", "value": "substrate [(+)]"},
      {"measurement": "Activity", "setting": "[7]", "value": "is not a substrate [(-)]"}
    ]}
  ]
}
